Test system: 935938-334-R-J1-PDC spheroids with HUVEC/MSC, viability
Assay: Anticancer human tumor 935938-334-R-J1-PDC patient-derived small intestine adenocarcinoma cell line growth inhibition [PI3K]
Conditions: for IC50: curve of first compound; for viability, T/C: stronger effect = lower value
Procedure, shortened: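 Three cell types, namely tumor cells, endothelial cells and mesenchymal stem cells, formed each spheroid. Combinations with four PI3K inhibitors were screened at clinically achievable concentrations decreasing by half-log, and spheroid viability was recorded.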

[1] = second compound 0.0316 µM, first compound 0.0316 µM
[2] = second compound 0.0316 µM, first compound 0.1 µM
[3] = second compound 0.0316 µM, first compound 0.316 µM
[4] = second compound 0.0316 µM, first compound 1 µM
[5] = second compound 0.0316 µM, first compound 3.16 µM
[6] = second compound 0.0316 µM, first compound 10 µM
[7] = second compound 0.1 µM, first compound 0.0316 µM
[8] = second compound 0.1 µM, first compound 0.1 µM
[9] = second compound 0.1 µM, first compound 0.316 µM
[10] = second compound 0.1 µM, first compound 1 µM
[11] = second compound 0.1 µM, first compound 3.16 µM
[12] = second compound 0.1 µM, first compound 10 µM
[13] = second compound 0.316 µM, first compound 0.0316 µM
[14] = second compound 0.316 µM, first compound 0.1 µM
[15] = second compound 0.316 µM, first compound 0.316 µM
[16] = second compound 0.316 µM, first compound 1 µM
[17] = second compound 0.316 µM, first compound 3.16 µM
[18] = second compound 0.316 µM, first compound 10 µM
[19] = second compound 1 µM, first compound 0.0316 µM
[20] = second compound 1 µM, first compound 0.1 µM
[21] = second compound 1 µM, first compound 0.316 µM
[22] = second compound 1 µM, first compound 1 µM
[23] = second compound 1 µM, first compound 3.16 µM
[24] = second compound 1 µM, first compound 10 µM
[25] = second compound 3.16 µM, first compound 0.0316 µM
[26] = second compound 3.16 µM, first compound 0.1 µM
[27] = second compound 3.16 µM, first compound 0.316 µM
[28] = second compound 3.16 µM, first compound 1 µM
[29] = second compound 3.16 µM, first compound 3.16 µM
[30] = second compound 3.16 µM, first compound 10 µM
[31] = second compound 10 µM, first compound 0.0316 µM
[32] = second compound 10 µM, first compound 0.1 µM
[33] = second compound 10 µM, first compound 0.316 µM
[34] = second compound 10 µM, first compound 1 µM
[35] = second compound 10 µM, first compound 3.16 µM
[36] = second compound 10 µM, first compound 10 µM
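Note: compound exposure lasted seven days before viability was read.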
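Throughout, for viability, T/C: percent of vehicle DMSO treated spheroid viability so 100% = untreated.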

Structure (SMILES): CC(Cn1ccc(-c2ccc(C#N)c(Cl)c2)n1)NC(=O)c1cc(C(C)O)[nH]n1 (centres undefined) + Cc1nc(NC(=O)N2CCCC2C(N)=O)sc1-c1ccnc(C(C)(C)C(F)(F)F)c1
- IC50 (second compound 0.0316 µM): > 10000 nM
- IC50 (second compound 0.1 µM): > 10000 nM
- IC50 (second compound 0.316 µM): > 10000 nM
- IC50 (second compound 1 µM): > 10000 nM
- IC50 (second compound 3.16 µM): 400 nM
- IC50 (second compound 10 µM): < 31.6 nM
- viability, T/C [1]: 81.8%
- viability, T/C [2]: 101%
- viability, T/C [3]: 89.8%
- viability, T/C [4]: 91%
- viability, T/C [5]: 104%
- viability, T/C [6]: 78.3%
- viability, T/C [7]: 109%
- viability, T/C [8]: 72.3%
- viability, T/C [9]: 99.4%
- viability, T/C [10]: 77.2%
- viability, T/C [11]: 97.6%
- viability, T/C [12]: 75.6%
- viability, T/C [13]: 81.8%
- viability, T/C [14]: 81.6%
- viability, T/C [15]: 58.5%
- viability, T/C [16]: 82%
- viability, T/C [17]: 75.5%
- viability, T/C [18]: 84.8%
- viability, T/C [19]: 79.2%
- viability, T/C [20]: 79.6%
- viability, T/C [21]: 62.3%
- viability, T/C [22]: 65%
- viability, T/C [23]: 64.6%
- viability, T/C [24]: 47.7%
- viability, T/C [25]: 62.7%
- viability, T/C [26]: 61%
- viability, T/C [27]: 50.3%
- viability, T/C [28]: 44.3%
- viability, T/C [29]: 59.4%
- viability, T/C [30]: 43.9%
- viability, T/C [31]: 46.3%
- viability, T/C [32]: 42.6%
- viability, T/C [33]: 52.3%
- viability, T/C [34]: 51.8%
- viability, T/C [35]: 44.3%
- viability, T/C [36]: 40%

Structure (SMILES): CC1(C)CCC(Nc2ncc(C(F)(F)F)c(-c3c[nH]c4c(P(C)(C)=O)c(C#N)ccc34)n2)CN1 (centres undefined) + Cc1nc(NC(=O)N2CCCC2C(N)=O)sc1-c1ccnc(C(C)(C)C(F)(F)F)c1
- IC50 (second compound 0.0316 µM): < 31.6 nM
- IC50 (second compound 0.1 µM): < 31.6 nM
- IC50 (second compound 0.316 µM): < 31.6 nM
- IC50 (second compound 1 µM): < 31.6 nM
- IC50 (second compound 3.16 µM): < 31.6 nM
- IC50 (second compound 10 µM): < 31.6 nM
- viability, T/C [1]: 31.4%
- viability, T/C [2]: 24.9%
- viability, T/C [3]: 39.4%
- viability, T/C [4]: 33.7%
- viability, T/C [5]: 30.8%
- viability, T/C [6]: 5.69%
- viability, T/C [7]: 33.6%
- viability, T/C [8]: 34.4%
- viability, T/C [9]: 31.6%
- viability, T/C [10]: 32.3%
- viability, T/C [11]: 36.3%
- viability, T/C [12]: 6.9%
- viability, T/C [13]: 34.6%
- viability, T/C [14]: 34.5%
- viability, T/C [15]: 26.2%
- viability, T/C [16]: 29.6%
- viability, T/C [17]: 27.6%
- viability, T/C [18]: 6.74%
- viability, T/C [19]: 38.3%
- viability, T/C [20]: 26.2%
- viability, T/C [21]: 23.7%
- viability, T/C [22]: 20.8%
- viability, T/C [23]: 23.7%
- viability, T/C [24]: 4.15%
- viability, T/C [25]: 24.6%
- viability, T/C [26]: 22.6%
- viability, T/C [27]: 24.5%
- viability, T/C [28]: 25.2%
- viability, T/C [29]: 25.2%
- viability, T/C [30]: 3.91%
- viability, T/C [31]: 25.6%
- viability, T/C [32]: 23.8%
- viability, T/C [33]: 26.2%
- viability, T/C [34]: 24.7%
- viability, T/C [35]: 19.9%
- viability, T/C [36]: 2.1%

— PubChem BioAssay AID1963966 (Molecular Pharmacology Branch, DTP, NCI, 2024)
